In patent publication US11091434B2, “Type III deiodinase inhibitors and uses thereof” (HADASIT MEDICAL RESEARCH SERVICES AND DEVELOPMENT LTD., priority 2014, dated 2021):
“Also recorded” adds a separate entry of the source. Each block holds one molecule with its values, some of them ahead of it.

Assays:
[1] = Deiodination assay: deiodination of T4 by DIO3 mimic compound A; assay type: biochemical; settings: for inhibition of the deiodinase activity (deiodination of T4) of DIO3 mimic compound A: 100 mM phosphate buffer pH 7.5, 10 mM DTT, 37° C., rT3 formation by HPLC; for IC50 for inhibiting the DIO3 mimic: mimic used in micromolar concentrations, FIG. 5
Experimental: The deiodination of thyroxine by compound A (a DIO3 mimetic; FIGS. 2 and 3) in the presence of various thiourea derivatives was studied. When the commonly used antithyroid drugs such as thiourea derivatives (e.g., 6-n-propyl-2-thiouracil (PTU), 6-methyl-2-thiouracil (MTU) and 1-methyl-3H-imidazole-2-thione or methimazole (MMI)) were used, no inhibition of the deiodinase activity was observed.
The deiodination reactions were carried out in 100 mM phosphate buffer (pH 7.5) with 10 mM dithiothreitol (DTT) at 37° C. Diselenol (Compound A) was freshly prepared by reducing the corresponding diselenide, with NaBH4 prior to use. The reaction products were analyzed by reverse-phase HPLC (Lichrospher C18 column, 4.6 μm, 150 mm×5 mm) with gradient elution using acetonitrile/ammonium acetate (pH 4.0) as the mobile phase. The formation of rT3 was monitored at λ=275 nm and the amounts of deiodinated products formed in the reactions in the presence or absence of test compounds were calculated by comparing the peak areas.

[2] = Water solubility (qualitative comparison); assay type: physicochemical; settings: compared with PBENZ (compound 4)
OVCAR3 cells [3] = assay: OVCAR3 cell viability by WST-1 assay; assay type: cell-based, Human; settings: OVCAR3, 0.5 μM, 48 h
Experimental: (§1) Cell lines: Human ovarian adenocarcinoma cells employed in the study were OVCAR-3 (ATCC HTB-161), A2780 (Sigma Aldrich) and SKOV-3 (ATCC HTB-77). Human normal embryonic kidney cells, HEK 293 (ATCC CRL1573) were used. All cells were cultured in RPMI1640 supplemented with 10% heat-inactivated FBS and antibiotics. Before conducting an experiment, cells were cultured for 24 h in RPMI1640 supplemented with 1.5% heat-inactivated charcoal stripped FBS and antibiotics.
Viability: WST-1 (Roche; 10% final concentration) was incubated with cells at 37° C. for 2 h and read with a MicroELISA reader at 440 nm.
(§2) OVCAR3 cells were collected and seeded in 96 well plates (10,000/well). The six compounds were then dissolved in DMSO and added to a final 0.5 μM concentration for 48 h of incubation. After incubation the cells were imaged by light microscopy (FIG. 13B). […] These cells were then examined for cell viability by WST-1 assay (FIG. 13C).

[4] = Serum and brain thyroid hormone levels after 3 weeks ICV administration by osmotic minipumps; assay type: in vivo, BALB/c mice; settings: mice; for change in brain free T3 levels (in words): one sided non-paired t test; for Serum Free T3, Mean / Serum Free T4, Mean / Brain Free T3, Mean / Brain Free T4, Mean: ICV by osmotic minipump for 3 weeks, IOP 2 mg/kg, ITYR 5 mg/kg; for Serum Free T3, Mean: vehicle 14.45; for Serum Free T4, Mean: vehicle 36.05; for Brain Free T3, Mean: vehicle 72.74; for Brain Free T4, Mean: vehicle 250.54
Experimental: Deaths were related to the surgical procedure.
At the end of the tests, animals were anesthetized with veterinary Pental (13.333 mg/kg) and cardiac blood was drawn for peripheral T3 (triiodothyronine) and T4 (thyroxine) levels. Brains were harvested for evaluating brain T3, T4 levels. Hormone levels in the sera and brains were measured by SunLong Biotech Mouse Ultrasensitivity total and free T3 and T4 ELISA Kits, employing producing a standard curve followed by actual measurement, in which OD levels obtained by spectrophotometer were converted, using the standard curve, to pg/ml values.

OVCAR3 cells [5] = assay: OVCAR3 cell density and morphology by light microscopy; assay type: cell-based, Human; settings: OVCAR3, 0.5 μM, 48 h
Experimental: as §1
Microscopy: The cells were visualized using a microscope equipped with a camera (model IX71; Olympus) with a 20_/0.50 objective lens and Cell^A (version 3.1) Olympus software imaging.
as §2

[6] = Novelty suppressed feeding test (NSFT) after 3 weeks ICV administration; settings: mice, ICV 3 weeks, compared to vehicle; ANCOVA with brain T3 as covariate
DIO1 = molecular target: T1, DIO1 (Homo sapiens, UniProt P49895); settings: cited from earlier work
T1 sequence (P49895 1-249): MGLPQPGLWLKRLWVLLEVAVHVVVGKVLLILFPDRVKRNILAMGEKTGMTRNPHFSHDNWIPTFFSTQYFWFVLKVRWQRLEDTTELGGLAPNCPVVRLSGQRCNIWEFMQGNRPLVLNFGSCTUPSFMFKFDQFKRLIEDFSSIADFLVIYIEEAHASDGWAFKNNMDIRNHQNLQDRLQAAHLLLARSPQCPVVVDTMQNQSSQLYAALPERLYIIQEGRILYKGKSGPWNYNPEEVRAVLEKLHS

DIO3 = molecular target: T2, DIO3 (Homo sapiens, UniProt P55073); settings: cited from earlier work
T2 sequence (P55073 1-304): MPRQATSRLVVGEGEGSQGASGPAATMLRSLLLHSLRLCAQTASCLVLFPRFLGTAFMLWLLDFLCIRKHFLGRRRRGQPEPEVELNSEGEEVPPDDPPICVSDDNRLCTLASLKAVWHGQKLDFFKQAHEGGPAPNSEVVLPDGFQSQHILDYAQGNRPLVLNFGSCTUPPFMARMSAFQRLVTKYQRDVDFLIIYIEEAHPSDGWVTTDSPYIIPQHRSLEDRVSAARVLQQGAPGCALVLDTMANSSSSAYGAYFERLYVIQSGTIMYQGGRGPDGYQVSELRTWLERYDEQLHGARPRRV

DIO2 = DIO2 (Homo sapiens, UniProt Q92813); settings: cited from earlier work
DIO2, sequence (Q92813 whole entry, species assumed): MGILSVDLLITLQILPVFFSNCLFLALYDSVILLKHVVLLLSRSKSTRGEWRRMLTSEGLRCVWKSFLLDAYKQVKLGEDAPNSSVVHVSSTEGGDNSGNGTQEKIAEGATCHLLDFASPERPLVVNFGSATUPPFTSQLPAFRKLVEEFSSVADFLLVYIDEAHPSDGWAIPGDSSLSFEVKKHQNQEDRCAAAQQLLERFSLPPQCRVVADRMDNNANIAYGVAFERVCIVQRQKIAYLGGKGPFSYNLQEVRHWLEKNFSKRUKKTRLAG

inhibition of the deiodinase activity (deiodination of T4) of DIO3 mimic compound A [1]: inhibit
Structure (SMILES): O=C1C(Br)=C(Br)C(=O)N1Cc1ccccc1 [B, 2,3-dibromo-N-benzylmaleimide]

inhibition of the deiodinase activity (deiodination of T4) of DIO3 mimic compound A [1]: Inhibition | IC50 for inhibiting the DIO3 mimic [1]: micromolar range | solubility in water [2]: more soluble in water
Structure (SMILES): O=C(O)C(Cc1ccc(O)cc1)N1C(=O)C(Br)=C(Br)C1=O (stereo not shown) [Compound 3]
reaction with the DIO3 mimic [1]: react stoichiometrically | cell viability (OVCAR3 cells [3]): low reduction in viability

IC50 for inhibiting the DIO3 mimic [1]: micromolar range
Structure (SMILES): O=C(O)c1ccc(N2C(=O)C(Br)=C(Br)C2=O)cc1 [Compound 4]
reaction with the DIO3 mimic [1]: react stoichiometrically | cell viability (OVCAR3 cells [3]): No effect

Structure (SMILES): O=C(O)C(Cc1cc(I)c(O)c(I)c1)N1C(=O)C(Br)=C(Br)C1=O (stereo not shown) [Compound 5]
change in brain free T3 levels (in words) ([4]; ICV 3 weeks, vs. vehicle): not significantly increased | Serum Free T3, Mean [4]: 12.33 pg/mL | Serum Free T4, Mean [4]: 37.00 ng/mL | Brain Free T3, Mean [4]: 81.98 pg/mL | Brain Free T4, Mean [4]: 262.86 ng/mL | cell density and cell morphology (OVCAR3 cells [5]): marked reduction in cell density and deformed cell morphology | latency to feed in the novelty suppressed feeding test [6]: reduced latency to feed | cell viability (OVCAR3 cells [3]): significant reduction in cell viability

Structure (SMILES): CCC(Cc1c(I)cc(I)c(N2C(=O)C(Br)=C(Br)C2=O)c1I)C(=O)O (stereo not shown) [Compound 6]
increase in brain free T3 levels ([4]; ICV 3 weeks, vs. vehicle): about 46% | change in brain free T3 levels (in words) ([4]; ICV 3 weeks, vs. vehicle): significant increase | Serum Free T3, Mean [4]: 12.23 pg/mL | Serum Free T4, Mean [4]: 35.75 ng/mL | Brain Free T3, Mean [4]: 84.30 pg/mL | Brain Free T4, Mean [4]: 244.11 ng/mL | latency to feed in the novelty suppressed feeding test [6]: reduced latency to feed | cell viability (OVCAR3 cells [3]): low reduction in viability

Structure (SMILES): O=C1C(Br)=C(Br)C(=O)N1CCc1ccc(O)c(O)c1 [Compound 7]
cell density and cell morphology (OVCAR3 cells [5]): marked reduction in cell density and deformed cell morphology | cell viability (OVCAR3 cells [3]): significant reduction in cell viability

Structure (SMILES): O=C(O)CC(C(=O)O)N1C(=O)C(Br)=C(Br)C1=O (stereo not shown) [Compound 8]
cell density and cell morphology (OVCAR3 cells [5]): marked reduction in cell density and deformed cell morphology | cell viability (OVCAR3 cells [3]): significant reduction in cell viability

inhibition of the deiodinase activity (deiodination of T4) of DIO3 mimic compound A [1]: inhibit; also recorded: Inhibition
Structure (SMILES): CN1C(=O)C(Br)=C(Br)C1=O [Compound C, 2,3-dibromo-N-methylmaleimide]

Structure (SMILES): O=C(O)CI [IAA, iodoacetic acid]
inhibition of DIO1 (DIO1): inhibitor | inhibition of DIO3 (DIO3): cannot inhibit | inhibition of DIO2 (DIO2): cannot inhibit

inhibition of the deiodinase activity (deiodination of T4) of DIO3 mimic compound A [1]: no inhibition
Structure (SMILES): Cn1cc[nH]c1=S [MMI, 1-methyl-3H-imidazole-2-thione, reference compound]

inhibition of the deiodinase activity (deiodination of T4) of DIO3 mimic compound A [1]: no inhibition
Structure (SMILES): Cc1cc(=O)[nH]c(=S)[nH]1 [MTU, 6-methyl-2-thiouracil]
inhibition of DIO1 (DIO1): inhibit | inhibition of DIO3 (DIO3): do not inhibit

inhibition of the deiodinase activity (deiodination of T4) of DIO3 mimic compound A [1]: no inhibition
Structure (SMILES): CCCc1cc(=O)[nH]c(=S)[nH]1 [PTU, 6-n-propyl-2-thiouracil]
inhibition of DIO1 (DIO1): inhibit | inhibition of DIO3 (DIO3): do not inhibit
